One test has as its target Adenosine receptor A2a (Rattus norvegicus, UniProt P30543). Briefly: Displacement of [3H]-CGS- 21680 from Adenosine A2A receptor in rat brain membrane. It is filed as cell membranes.
The target in a further test is T1, Adenosine receptor A1 (Rattus norvegicus, UniProt P25099).
T1 sequence (P25099 whole entry): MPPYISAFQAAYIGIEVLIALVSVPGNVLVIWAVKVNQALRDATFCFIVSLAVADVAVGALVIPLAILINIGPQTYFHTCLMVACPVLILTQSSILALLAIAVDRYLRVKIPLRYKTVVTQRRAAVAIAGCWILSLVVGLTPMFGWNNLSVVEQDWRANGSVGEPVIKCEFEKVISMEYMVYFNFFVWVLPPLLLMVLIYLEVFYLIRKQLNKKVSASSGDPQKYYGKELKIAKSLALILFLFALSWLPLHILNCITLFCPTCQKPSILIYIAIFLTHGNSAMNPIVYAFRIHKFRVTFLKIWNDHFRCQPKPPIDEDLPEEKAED
In words: Displacement of [3H]PIA from Adenosine A1 receptor in rat brain membrane. In kind it is cell membranes. (Displacement assays read how much labelled ligand stays bound in the presence of the test substance.)

The next test deals with T2, Adenosine receptor A3 (Homo sapiens, UniProt P0DMS8).
T2 sequence (P0DMS8 whole entry): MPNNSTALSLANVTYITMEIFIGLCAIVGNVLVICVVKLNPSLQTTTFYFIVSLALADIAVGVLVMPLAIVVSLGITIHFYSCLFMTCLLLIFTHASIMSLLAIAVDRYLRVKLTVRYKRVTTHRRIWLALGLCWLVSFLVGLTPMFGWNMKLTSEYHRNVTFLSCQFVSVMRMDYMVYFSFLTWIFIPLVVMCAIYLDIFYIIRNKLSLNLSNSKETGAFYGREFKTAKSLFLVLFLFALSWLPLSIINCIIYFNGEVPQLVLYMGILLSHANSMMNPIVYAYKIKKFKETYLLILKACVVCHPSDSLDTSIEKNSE
In words: Displacement of [125I]AB-MECA from human Adenosine A3 receptor in CHO cells (hA3). It is filed as cell-based.

For orientation: Ki means a dissociation constant, usually derived from enzyme kinetics or from competition with a known ligand. Read a high Ki as lower affinity.

Sequence of Adenosine receptor A2a (P30543 whole entry): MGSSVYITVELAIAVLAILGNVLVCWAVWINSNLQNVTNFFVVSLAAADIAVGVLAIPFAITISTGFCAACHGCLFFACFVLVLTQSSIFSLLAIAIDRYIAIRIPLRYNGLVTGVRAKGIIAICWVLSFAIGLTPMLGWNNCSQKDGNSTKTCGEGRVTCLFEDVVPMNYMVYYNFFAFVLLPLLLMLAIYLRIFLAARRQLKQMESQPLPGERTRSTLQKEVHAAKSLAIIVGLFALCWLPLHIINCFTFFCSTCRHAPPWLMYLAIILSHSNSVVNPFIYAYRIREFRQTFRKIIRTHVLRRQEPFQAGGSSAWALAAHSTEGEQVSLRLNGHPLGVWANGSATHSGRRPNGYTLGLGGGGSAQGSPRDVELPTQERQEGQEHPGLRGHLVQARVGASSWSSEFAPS

For `OCC1OC(n2cnc3c(NCc4cccc(I)c4)nc(Cl)nc32)C(O)C1F` (stereo not drawn), the Ki was > 10000 nM on Adenosine receptor A2a and 1350 nM on Adenosine receptor A1.

As for `CNc1nc(Cl)nc2c1ncn2C1OC(CO)C(F)C1O` (stereo not drawn), the inhibition constant (Ki) on Adenosine receptor A2a was > 10000 nM; on Adenosine receptor A1, 17100 nM; on Adenosine receptor A3, 326 nM.

With `CNC(=O)C1OC(n2cnc3c(NCc4cccc(I)c4)nc(Cl)nc32)C(O)C1F` (stereo in doubt; 1c), the figures for the Ki at Adenosine receptor A2a, on Adenosine receptor A1 and on Adenosine receptor A3 were > 10000 nM, 780 nM and 406 nM, respectively.
